According to patent publication US20260023070A1, “OPTOGENETIC ALPHA-SYNUCLEIN AGGREGATION SYSTEM-BASED COMPOUND SCREENING PLATFORM IN PD-hiPSC-mDA NEURONS” (The Johns Hopkins University, priority 2022, published 2026):

Tests used:
[1] = system: opto-α-syn SH-SY5Y cells; test: OASIS-based high-content imaging assay of light-induced α-syn aggregation (5G4 staining, Aggregates Induction Score); assay type: cell-based, human; conditions: for AIS, aggregates induction score: validation of 19 hits, 24-well plates, blue light, AIS normalized to positive control (blue light, DMSO) set as 1.0; for AIS compared to blue light-illuminated DMSO control: two independent experiments, 24-well culture conditions, blue light stimulation
Procedure: The opto-α-syn expressing SH-SY5Y cells were seeded in 96-well black flat bottom imaging microplates (Falcon) at 30,000 cells per well in 100 μL of complete media using E1-ClipTip electronic multichannel pipette (Thermo Fisher Scientific) and incubated in 37° C. and 5% CO2 humidified incubator. After 18 h of incubation, 10 μL of 10 μM compounds (column 2 to 10) or 1% DMSO (column 1 and 12) were added (final concentration of DMSO is 0.1%). In order to induce aggregations, the plates were illuminated with blue light (26 μW/mm^2) on customized blue light illumination 96-well plates for 2 h. Afterward, cells were fixed in 4% paraformaldehyde (PFA) for 15 min and stained with the aggregated-α-syn antibody (5G4) after permeabilization with 0.1% Triton X-100/0.5% BSA/PBS solution. […] To analyze images, the automated aggregation quantification algorithm and cell counting algorithm in the form of macro are developed using ImageJ software. Briefly, the algorithm includes the inversion, subtracting background, threshold selection, analyzing particles with ranged size and circularity. The Aggregates Induction Score (AIS) is calculated using, the following equation: […]
where N^agg is the number of aggregates, ^Ntotal is the number of total cells. The AIS in each well is normalized by the AIS in positive control which is set as 1.0. […] The hit selection strategy was based on calculated AIS; hits were defined as AIS<0.5. […] Two independent experiments were performed, and total 10 images per well are analyzed to calculate AIS.
As illustrated in FIGS. 8A-8E, high-content imaging screening with the optogenetic α-syn aggregation system was performed, following the schematic representation of the process of high-content imaging (HCI) screening with optogenetics-assisted method of alpha-synuclein aggregation induction system (OASIS) (FIG. 8A). SH-SY5Y cells expressing opto-α-syn were in dark or exposed to blue light (26 μW/mm^2 at 470 nm, 1 Hz, 1 s) for 1.5 h under 96-well plate culture conditions, and then immunostained with 5G4 antibody. The equation of Aggregates Induction Score (AIS) (FIG. 8B) was used for the calculation of Z′-factor for HCI screening with OASIS (FIG. 8C). […] Arrow represents the degree of separation (Z′-factor) between light-illuminated and darkness controls. […] Detailed information of numbered compounds was described in Table 1. One-way ANOVA followed by Dunnett's post hoc test (n=10 or 20, 5 or 10 images each from two independent experiments). *P<0.05, **P<0.01, ***P<0.001, ****P<0.0001.
As illustrated in FIGS. 9A-9B, high-content imaging screening with the optogenetic α-syn aggregation system was performed. The measurement of 5G4^+ aggregates in opto-mock or opto-α-syn SH-SY5Y neuronal cells was assessed. Cells were in dark or exposed to blue light (26 μW/mm^2 at 470 nm, 1 Hz, 1 s) for 1.5 h, and then immunostained with 5G4 antibody. […] Images were converted to grayscale, and a threshold was adjusted to exclude the background based on the size of particles. Once the value of threshold was determined, all the images were applied with the fixed threshold, and then the number of aggregates was measured (FIG. 9A). Number of DAPI from the original images were counted (FIG. 9B). Representative images of opto-α-syn SH-SY5Y neuronal cells treated with 19 compounds under 24-well plate culture conditions were imaged. SH-SY5Y cells expressing opto-α-syn were in dark or exposed to blue light (34 μW/mm^2 at 470 nm, 1 Hz, 0.5 s) for 1.5 h, and then immunostained with 5G4 antibody.

[2] = system: opto-α-syn PD hiPSC-derived mDA neurons; test: Light-induced α-syn aggregation and neurotoxicity in opto-α-syn PD hiPSC-derived mDA neurons; assay type: cell-based, human; conditions: blue light 7 days; compared to DMSO control; significant at 1 and 10 nM CDC, 10 and 100 nM BAG
Procedure: Whether these potential hit compounds can inhibit α-syn aggregation and rescue aggregation-induced neuronal toxicity was tested on PD hiPSC-derived mDA neurons. The top 5 ranked small compounds in FIGURE SE were selected and these compounds to were used to treat opto-α-syn PD hiPSC-derived mDA neurons at three different concentrations (1 nM, 10 nM, 100 nM) with blue light stimulation. […] Overall, the two compounds were finally selected among the potential hit drugs from our novel opto-α-syn neuronal cell model-based primary screening (FIG. 11D), and they considerably rescued neuronal cell death from aggregation-induced TH^+ mDA neuron-selective toxicity in PD-iPSC derived neurons. To identify possible molecules involved in this compound-mediated recovery of TH^+ mDA neurons, RNA-sequencing (RNA-seq) analysis was performed with four different samples (dark condition with DMSO, blue light stimulation with DMSO, blue light stimulation with BAG treatment, and blue light stimulation with CDC treatment). To find BAG- or CDC-responsive genes, differentially expressed genes (DEGs) of DMSO-treated samples upon blue light stimulation were first extracted, and then the DEGs were filtered with criteria of which became non-DEGs in response to CDC or BAG treatment. […]
The effect of 5 selected compounds on opto-α-syn-expressing PD hiPSC-derived mDA neurons was evaluated. […]

[3] = system: mouse primary neurons treated with α-syn PFF; test: α-syn PFF model in mouse primary neurons (TX-insoluble pathologic α-syn); assay type: cell-based
Procedure: To validate the effects of these two compounds on the OASIS-independent model, α-syn PFF were treated with mouse primary neurons and non-OASIS-human PD hiPSC-derived mDA neurons with CDC 021 and BAG 956.

[4] = system: blue light-illuminated opto-α-syn-mDA neurons; test: Autophagy and aggregate clearance in blue light-illuminated opto-α-syn-mDA neurons; assay type: cell-based, human; conditions: additional treatment with BAG 956, blue light-illuminating condition
Procedure: Because autophagy can be activated by the inhibition of PI 3-kinase (PI3K) or the PDK1 pathway, it was tested whether treatment with BAG 956 can induce the autophagic flux to decrease α-syn aggregates in opto-α-syn mDA neurons and MOs.

Row | SMILES | AIS, aggregates induction score [1] | other results
1 | CCCN(CCC)CCc1ccc(OC)c(OCCc2ccccc2)c1.Cl [NE 100 hydrochloride] | 0.53 | 
2 | O=C1CCc2cc(OCCCCc3nnnn3C3CCCCC3)ccc2N1 [Cilostazol] | 0.65 | 
3 | Cc1cc(Nc2nc(N[C@@H](C)c3ncc(F)cn3)ncc2Cl)n[nH]1 [AZD 1480] | 0.31 | AIS compared to blue light-illuminated DMSO control [1]: significant decrease
4 | C[C@@H]1C[C@H]2[C@@H]3CCC4=CC(=O)C=C[C@]4(C)[C@@]3(F)[C@@H](O)C[C@]2(C)[C@@]1(O)C(=O)CO [Dexamethasone] | 0.74 | 
5 | CCOC(=O)c1ccc(N(C)c2csc(-c3ccccc3)n2)cc1 [Neuropathiazol] | 0.73 | 
6 | CCc1c(C(=O)Nc2cc(S(=O)(=O)N(CC)CC)ccc2O)[nH]c(C)c1C(C)=O [XD 14] | 0.75 | 
7 | O=C(O)c1ccccc1C(=O)Nc1ccc(-c2ccccc2)cc1 [Kartogenin] | 0.98 | 
8 | COc1cc2nc(N3CCC(N4CCCCC4)CC3)nc(NC3CCCCCC3)c2cc1OC.Cl.Cl [C 021 dihydrochloride] | 0.19 | AIS compared to blue light-illuminated DMSO control [1]: significant decrease; survival rate of TH+ mDA neurons [2]: significant increase; pathologic α-syn in the Triton X-100 (TX)-insoluble fraction [3]: significantly reduced
9 | CC1(C)C(=O)N=C2C1=C(O)C(=O)c1ccccc12 [BVT 948] | 0.36 | AIS compared to blue light-illuminated DMSO control [1]: significant decrease
10 | CN(C)CCc1c[nH]c2ccc(Cn3cncn3)cc12 [Rizatriptan benzoate] | 0.59 | 
11 | CC(=O)c1cc2c(o1)C(=O)c1ccccc1C2=O [Napabucasin] | 0.97 | 
12 | NS(=O)(=O)c1cc2c(cc1Cl)NC(C1CC3C=CC1C3)NS2(=O)=O (stereo not shown) [Cyclothiazide] | 0.68 | 
13 | O=C1NC(=O)c2c1c1c3ccccc3[nH]c1c1[nH]c3ccccc3c21 [Arcyriaflavin A] | 0.37 | AIS compared to blue light-illuminated DMSO control [1]: significant decrease
14 | COc1c(C)c2c(c(O)c1C/C=C(\C)CCC(=O)O)C(=O)OC2 [Mycophenolic acid] | 0.57 | 
15 | CCCCCCCCCCC(C)(C)C(=O)Nc1c(OC)cc(OC)cc1OC [Compound C1976, CI 976] | 0.63 | 
16 | CC(C)c1ccc2oc3nc(N)c(C(=O)O)cc3c(=O)c2c1 [Amlexanox] | 0.53 | 
17 | CO/C1=C\C(C)=C\[C@@H](C)[C@@H](O)[C@@H](C)C/C(C)=C/C=C/[C@H](OC)[C@@H]([C@@H](C)[C@@H](O)[C@H](C)[C@@]2(O)C[C@@H](O)[C@H](C)[C@@H](C(C)C)O2)OC1=O [bafilomycin A1] |  | BAG 956-mediated level of TH+ mDA neurons [4]: reversed; BAG 956-mediated reduction of 5G4+ α-syn aggregates [4]: reversed
18 | COc1c(C)c2c(c(O)c1C/C=C(\C)CCC(=O)OCCN1CCOCC1)C(=O)OC2 [Mycophenolate mofetil] | 0.71 | 
